Test [1] addresses T1, Muscarinic acetylcholine receptor M1 (Rattus norvegicus) (UniProt P08482).
T1 sequence (whole entry): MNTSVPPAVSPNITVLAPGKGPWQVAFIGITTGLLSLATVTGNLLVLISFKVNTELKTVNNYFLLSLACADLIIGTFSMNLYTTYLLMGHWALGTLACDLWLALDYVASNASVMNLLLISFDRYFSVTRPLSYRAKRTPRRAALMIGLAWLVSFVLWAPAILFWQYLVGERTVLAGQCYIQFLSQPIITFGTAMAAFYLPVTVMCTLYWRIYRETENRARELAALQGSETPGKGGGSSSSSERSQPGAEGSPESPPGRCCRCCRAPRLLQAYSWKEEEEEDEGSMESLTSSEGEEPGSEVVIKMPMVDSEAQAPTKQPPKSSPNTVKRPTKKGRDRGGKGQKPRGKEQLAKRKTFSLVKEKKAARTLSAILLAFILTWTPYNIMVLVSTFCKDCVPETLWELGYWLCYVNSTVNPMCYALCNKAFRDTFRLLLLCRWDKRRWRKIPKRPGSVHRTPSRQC
The test is described as follows: Activation of rat muscarinic M1 receptor expressed in CHO cells co-expressing Gq protein assessed as potentiation of acetylcholine-induced intracellular Ca2+ mobilization at 30 uM relative to acetylcholine. Format: functional, cell-based.

Test [2] addresses T2, Muscarinic acetylcholine receptor M5 (Homo sapiens) (UniProt P08912).
T2 sequence (whole entry): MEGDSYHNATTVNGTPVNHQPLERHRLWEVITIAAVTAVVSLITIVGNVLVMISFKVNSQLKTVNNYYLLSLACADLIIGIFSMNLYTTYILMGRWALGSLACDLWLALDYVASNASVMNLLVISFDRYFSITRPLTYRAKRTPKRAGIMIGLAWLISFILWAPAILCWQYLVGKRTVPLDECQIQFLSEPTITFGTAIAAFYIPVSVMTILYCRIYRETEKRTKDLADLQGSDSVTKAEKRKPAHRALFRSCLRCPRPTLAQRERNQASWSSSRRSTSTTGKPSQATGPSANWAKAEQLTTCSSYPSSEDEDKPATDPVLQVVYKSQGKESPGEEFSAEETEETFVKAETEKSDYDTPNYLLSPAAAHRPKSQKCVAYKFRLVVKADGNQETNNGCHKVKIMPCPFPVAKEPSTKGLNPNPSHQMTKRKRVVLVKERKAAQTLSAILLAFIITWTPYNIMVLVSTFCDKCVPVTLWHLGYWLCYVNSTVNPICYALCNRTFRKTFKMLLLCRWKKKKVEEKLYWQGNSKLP
The test can be described thus: Activation of human muscarinic M5 receptor expressed in CHO cells coexpressing Gq protein assessed as potentiation of acetylcholine-induced intracellular Ca2+ mobilization at 30 uM relative to acetylcholine. Type of test: functional, cell-based.

In the case of `O=C1C(=O)N(Cc2ccc(F)cc2F)c2ccc(Cl)cc21`, the %max in test [1] was 32.4%; in test [2] it was 44.9%.
Consider `Cc1cccc2c1N(Cc1c(F)cccc1F)C(=O)C2=O`, for which the results for the %max in test [1] and in test [2] were 17.3% and 14.4%, respectively.
With `O=C1C(=O)N(Cc2ccccc2C(F)(F)F)c2ccc(Cl)cc21`, the values for the %max in test [1] and in test [2] were 29.6% and 48.4%, respectively.
In the case of `Cc1ccc2c(c1)C(=O)C(=O)N2Cc1ccc(Br)cc1F`, the %max in test [1] was found to be 22.3%; in test [2], 27.8%.
For `O=C1C(=O)N(Cc2ccc(Br)cc2)c2ccc(OC(F)(F)F)cc21`, in that order: 13.2% and 47.6%.
`Cc1cccc2c1N(Cc1ccc(F)cc1F)C(=O)C2=O`: the %max stood at 32.6% in test [1] and 33.8% in test [2].
As for `O=C1C(=O)N(Cc2ccc(Br)cc2F)c2ccccc21`, the %max in test [1] is 49.2%; in test [2], 48.5%.
For `COc1ccc(CN2C(=O)C(=O)c3c(Cl)ccc(Cl)c32)cc1`, in that order: 18.6% and 11.7%.
As for `O=C1C(=O)N(Cc2ccc(Br)cc2)c2c(Cl)ccc(Cl)c21`, the %max in test [1] turned out to be 12.1%; in test [2] it was 20.7%.
For `O=C1C(=O)N(Cc2ccccc2C(F)(F)F)c2c(Cl)cccc21`, in that order: 31.1% and 14%.
Consider `O=C1C(=O)N(Cc2c(F)cccc2F)c2ccccc21`, for which the %max is 36.6% in test [1] and 17.4% in test [2].
For the compound `Cc1ccc2c(c1)C(=O)C(=O)N2Cc1ccccc1C`, the %max in test [1] was 20.2%; in test [2], 29.9%.
For `O=C1C(=O)N(Cc2c(F)cccc2F)c2ccc(OC(F)(F)F)cc21`, in that order: 13.6% and 29.8%.
Regarding `O=C1C(=O)N(Cc2ccccc2Cl)c2c(Cl)ccc(Cl)c21`, the values for the %max in test [1] and in test [2] were 13.1% and 18.9%, respectively.
As for `O=C1C(=O)N(Cc2ccccc2Cl)c2ccc(Cl)cc21`, the %max was found to be 21.3% in test [1] and 44.4% in test [2].
With `O=C1C(=O)N(Cc2ccc(OC(F)(F)F)cc2)c2c(Cl)cccc21`, the values for the %max in test [1] and in test [2] were 43.6% and 72.3%, respectively.
Consider `O=C1C(=O)N(Cc2ccc(F)cc2F)c2c(F)cccc21`, for which the values for the %max in test [1] and in test [2] were 64.4% and 68.9%, respectively.
For `Cc1ccc2c(c1)C(=O)C(=O)N2Cc1ccc(OC(F)(F)F)cc1`, in that order: 13.8% and 18.9%.
As to `O=C1C(=O)N(Cc2ccccc2F)c2c(Cl)cccc21`, the values for the %max in test [1] and in test [2] were 50.4% and 49.5%, respectively.
Take `O=C1C(=O)N(Cc2ccc(Br)cc2F)c2ccc(Cl)cc21`: the %max came out at 29.9% in test [1] and 30.4% in test [2].
Take `O=C1C(=O)N(Cc2c(F)cccc2F)c2ccc(F)cc21`: the %max in test [1] was determined as 27.6%; in test [2] it was 31.1%.
As to `O=C1C(=O)N(Cc2ccccc2C(F)(F)F)c2c(Cl)ccc(Cl)c21`, the %max was determined as 21.1% in test [1] and 16% in test [2].
For `Cc1ccc2c(c1)C(=O)C(=O)N2Cc1ccc(Br)cc1`, in that order: 19% and 24.1%.
For `O=C1C(=O)N(Cc2ccc(F)cc2F)c2ccc(F)cc21`, in that order: 47.3% and 60.3%.
For `Cc1ccc2c(c1)C(=O)C(=O)N2Cc1ccc(C(F)(F)F)cc1`, in that order: 22.9% and 35.5%.
On to `O=C1C(=O)N(Cc2ccc(OC(F)(F)F)cc2)c2ccccc21`, for which the values for the %max in test [1] and in test [2] were 54.7% and 60.5%, respectively.
Regarding `COc1cccc(CN2C(=O)C(=O)c3cc(Cl)ccc32)c1`, the %max in test [1] turned out to be 16.9%; in test [2] it was 27.9%.
With `O=C1C(=O)N(Cc2ccc(C(F)(F)F)cc2)c2ccc(Cl)cc21`, the %max is 44.1% in test [1] and 67.4% in test [2].
For the compound `Cc1ccccc1CN1C(=O)C(=O)c2cccc(Cl)c21`, the %max in test [1] was 32.8%; in test [2], 32.6%.
With `O=C1C(=O)N(Cc2ccc(F)cc2F)c2ccc(OC(F)(F)F)cc21`, the %max is 25.9% in test [1] and 61.9% in test [2].
Regarding `O=C1C(=O)N(Cc2ccc(F)cc2F)c2ccccc21`, the %max was determined as 44.8% in test [1] and 40.4% in test [2].
Take `COc1cccc(CN2C(=O)C(=O)c3ccccc32)c1`: the %max in test [1] stood at 19.4%; in test [2] it was 28%.
For `O=C1C(=O)N(Cc2ccccc2Cl)c2ccc(F)cc21`, in that order: 41.4% and 39.9%.
For `O=C1C(=O)N(Cc2ccc(Br)cc2)c2c(Cl)cccc21`, in that order: 29.9% and 44.3%.
Consider `O=C1C(=O)N(Cc2ccc(OC(F)(F)F)cc2)c2ccc(Cl)cc21`, for which the %max in test [1] came out at 31.3%; in test [2], 47.1%.
In the case of `O=C1C(=O)N(Cc2ccccc2Cl)c2c(F)cccc21`, the values for the %max in test [1] and in test [2] were 18.5% and 20.3%, respectively.
Turning to `O=C1C(=O)N(Cc2ccc(Br)cc2F)c2c(Cl)ccc(Cl)c21`, the %max in test [1] stood at 9.93%; in test [2], 12.4%.
For the compound `O=C1C(=O)N(Cc2ccccc2F)c2ccc(Cl)cc21`, the %max in test [1] is 23%; in test [2], 36.3%.
`Cc1cccc2c1N(Cc1ccccc1F)C(=O)C2=O`: the %max came out at 24.9% in test [1] and 24.6% in test [2].
For `O=C1C(=O)N(Cc2c(F)cccc2F)c2c(F)cccc21`, the %max came out at 33.1% in test [1] and 25.1% in test [2].
`O=C1C(=O)N(Cc2ccc(OC(F)(F)F)cc2)c2c(Cl)ccc(Cl)c21`: the %max was 16% in test [1] and 23.2% in test [2].
As for `Cc1ccccc1CN1C(=O)C(=O)c2cc(F)ccc21`, the values for the %max in test [1] and in test [2] were 37.7% and 40.8%, respectively.
With `O=C1C(=O)N(Cc2c(F)cccc2F)c2c(Cl)cccc21`, the %max came to 38.8% in test [1] and 23.6% in test [2].
Consider `COc1ccc(CN2C(=O)C(=O)c3cc(Cl)ccc32)cc1`, for which the %max worked out at 20.3% in test [1] and 32.6% in test [2].
For `O=C1C(=O)N(Cc2ccc(OC(F)(F)F)cc2)c2c(F)cccc21`, in that order: 51.8% and 57.7%.
With `Cc1ccccc1CN1C(=O)C(=O)c2cccc(F)c21`, the results for the %max in test [1] and in test [2] were 30.2% and 27.5%, respectively.
For `Cc1ccc2c(c1)C(=O)C(=O)N2Cc1ccccc1Cl`, in that order: 16.8% and 24.3%.
In the case of `COc1ccc(CN2C(=O)C(=O)c3cc(F)ccc32)cc1`, the %max in test [1] was 41.1%; in test [2], 38.3%.
For `O=C1C(=O)N(Cc2c(F)cccc2F)c2ccc(Cl)cc21`, the %max in test [1] was 27.3%; in test [2], 31.8%.
For the compound `Cc1ccccc1CN1C(=O)C(=O)c2ccccc21`, the values for the %max in test [1] and in test [2] were 43.2% and 36.3%, respectively.
Take `O=C1C(=O)N(Cc2ccccc2F)c2c(F)cccc21`: the %max was 42.7% in test [1] and 42.4% in test [2].
Consider `O=C1C(=O)N(Cc2ccccc2C(F)(F)F)c2ccc(OC(F)(F)F)cc21`, for which the %max in test [1] is 22.6%; in test [2], 56.5%.
Turning to `O=C1C(=O)N(Cc2ccc(Br)cc2F)c2c(F)cccc21`, the figures for the %max in test [1] and in test [2] were 39.2% and 46.3%, respectively.
For the compound `O=C1C(=O)N(Cc2ccc(Br)cc2F)c2ccc(F)cc21`, the %max came out at 70.5% in test [1] and 64% in test [2].
Turning to `COc1ccc(CN2C(=O)C(=O)c3cc(C)ccc32)cc1`, the %max in test [1] was 14.1%; in test [2] it was 21.2%.

Values taken from ChEMBL document CHEMBL1136933 (J Med Chem, 2009).
